Measurements published in ChEMBL document CHEMBL1821599 (J Med Chem, 2011).
Activity calls are given as the source filed them. The rule behind the calls is not given here. Where a SMILES comes first, the peptide text is derived from it. Bridges are numbered along the chain shown (N, C = ends). [ ]: non-standard residue; d: D form.

Assays:
[1] = target: Somatostatin receptor type 2 (Homo sapiens, UniProt P30874); experiment: Displacement of 125I-[LTT]-SRIF-28 from human sst2 receptor in CCL39 cells after 2 hrs by autoradiography; type: cell-based
[2] = target: Somatostatin receptor type 5 (Homo sapiens, UniProt P35346); experiment: Displacement of 125I-[LTT]-SRIF-28 from human sst5 receptor in HEK293 cells after 2 hrs by autoradiography; type: cell-based
[3] = target: T1, Somatostatin receptor type 3 (Homo sapiens, UniProt P32745); experiment: Induction of sst3 receptor internalization in human HEK cells after 30 mins by immunofluorescence microscopy; type: cell-based; conditions: HEK293
[4] = target: T1, Somatostatin receptor type 3; experiment: Agonist activity at human sst3 receptor expressed in CCL39 cells after 5 hrs by luciferase reporter gene assay; type: functional, cell-based
[5] = target: T1, Somatostatin receptor type 3; experiment: Displacement of 125I-[LTT]-SRIF-28 from human sst3 receptor in CCL39 cells after 2 hrs by autoradiography; type: cell-based
[6] = target: Somatostatin receptor type 4 (Homo sapiens, UniProt P31391); experiment: Displacement of 125I-[LTT]-SRIF-28 from human sst4 receptor in CCL39 cells after 2 hrs by autoradiography; type: cell-based
[7] = target: Somatostatin receptor type 1 (Homo sapiens, UniProt P30872); experiment: Displacement of 125I-[LTT]-SRIF-28 from human sst1 receptor in CHO cells after 2 hrs by autoradiography; type: cell-based
[8] = target: T1, Somatostatin receptor type 3; experiment: Partial agonist activity at human sst3 receptor expressed in CCL39 cells after 5 hrs by luciferase reporter gene assay; type: functional, cell-based
[9] = target: T1, Somatostatin receptor type 3; experiment: Partial antagonist activity at human sst3 receptor expressed in CCL39 cells assessed as inhibition of somatostatin-induced luciferase reporter gene expression at 10 uM after 5 hrs; type: functional, cell-based
[10] = target: T1, Somatostatin receptor type 3; experiment: Inhibition of somatostatin-induced sst3 receptor internalization in human HEK cells at 10 uM after 30 mins by immunofluorescence microscopy; type: cell-based; conditions: HEK293
[11] = target: T1, Somatostatin receptor type 3; experiment: Induction of sst3 receptor internalization in human HEK cells at 10 uM after 30 mins by immunofluorescence microscopy; type: cell-based; conditions: HEK293

T1 sequence (P32745 whole entry): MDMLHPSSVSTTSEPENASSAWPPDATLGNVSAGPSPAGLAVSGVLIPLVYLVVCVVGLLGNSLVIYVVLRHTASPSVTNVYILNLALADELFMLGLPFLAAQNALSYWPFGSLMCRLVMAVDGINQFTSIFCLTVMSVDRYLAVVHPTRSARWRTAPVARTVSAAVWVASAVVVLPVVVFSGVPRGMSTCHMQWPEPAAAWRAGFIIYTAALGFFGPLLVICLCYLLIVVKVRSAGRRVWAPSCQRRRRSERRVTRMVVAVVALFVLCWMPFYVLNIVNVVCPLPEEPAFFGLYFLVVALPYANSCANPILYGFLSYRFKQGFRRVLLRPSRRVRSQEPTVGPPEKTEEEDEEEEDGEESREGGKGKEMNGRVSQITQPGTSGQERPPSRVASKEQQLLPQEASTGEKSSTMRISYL
Chain of Somatostatin receptor type 5 (P35346 whole entry): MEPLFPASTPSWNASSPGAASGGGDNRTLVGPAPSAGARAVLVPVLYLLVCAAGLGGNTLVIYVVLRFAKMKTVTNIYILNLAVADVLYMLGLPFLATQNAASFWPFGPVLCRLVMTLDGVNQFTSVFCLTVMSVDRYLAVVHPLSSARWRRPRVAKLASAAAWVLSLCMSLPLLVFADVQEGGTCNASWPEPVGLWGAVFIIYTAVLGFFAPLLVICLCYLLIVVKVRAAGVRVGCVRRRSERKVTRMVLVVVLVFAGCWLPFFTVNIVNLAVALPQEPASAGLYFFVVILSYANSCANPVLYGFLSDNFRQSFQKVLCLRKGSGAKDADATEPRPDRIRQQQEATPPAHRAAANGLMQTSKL
Chain of Somatostatin receptor type 1 (P30872 whole entry): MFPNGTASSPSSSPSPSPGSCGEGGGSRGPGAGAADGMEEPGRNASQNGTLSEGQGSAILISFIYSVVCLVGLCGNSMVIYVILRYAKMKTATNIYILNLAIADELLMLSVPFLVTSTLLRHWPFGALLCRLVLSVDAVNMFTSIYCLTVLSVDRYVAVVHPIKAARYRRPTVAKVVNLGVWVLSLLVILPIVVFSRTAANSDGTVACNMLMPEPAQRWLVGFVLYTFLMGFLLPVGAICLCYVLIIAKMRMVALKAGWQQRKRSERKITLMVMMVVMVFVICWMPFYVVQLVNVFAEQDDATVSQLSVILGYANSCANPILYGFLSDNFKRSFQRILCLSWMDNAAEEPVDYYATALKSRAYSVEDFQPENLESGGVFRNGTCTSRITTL
Chain of Somatostatin receptor type 2 (P30874 whole entry): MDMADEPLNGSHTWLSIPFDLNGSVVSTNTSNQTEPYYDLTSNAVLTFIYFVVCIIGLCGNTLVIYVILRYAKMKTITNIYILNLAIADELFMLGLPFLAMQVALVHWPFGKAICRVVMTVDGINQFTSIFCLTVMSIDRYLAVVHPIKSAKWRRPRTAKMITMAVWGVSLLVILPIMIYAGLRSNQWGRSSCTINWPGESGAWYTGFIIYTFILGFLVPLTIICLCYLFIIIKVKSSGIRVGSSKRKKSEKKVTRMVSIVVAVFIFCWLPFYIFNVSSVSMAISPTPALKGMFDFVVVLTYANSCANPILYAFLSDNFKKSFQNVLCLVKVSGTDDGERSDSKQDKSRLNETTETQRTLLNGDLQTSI
Chain of Somatostatin receptor type 4 (P31391 whole entry): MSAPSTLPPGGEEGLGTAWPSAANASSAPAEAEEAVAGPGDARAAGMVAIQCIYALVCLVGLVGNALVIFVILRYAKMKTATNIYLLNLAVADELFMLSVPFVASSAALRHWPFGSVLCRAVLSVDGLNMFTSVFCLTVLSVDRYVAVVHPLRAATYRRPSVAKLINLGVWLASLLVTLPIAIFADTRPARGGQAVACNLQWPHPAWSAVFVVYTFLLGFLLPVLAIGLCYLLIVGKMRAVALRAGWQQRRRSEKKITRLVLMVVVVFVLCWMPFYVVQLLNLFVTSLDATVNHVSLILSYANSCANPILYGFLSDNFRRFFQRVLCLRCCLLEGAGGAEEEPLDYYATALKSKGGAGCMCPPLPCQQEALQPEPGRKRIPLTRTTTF

Compound | IC50 [1] | IC50 [2] | Activity [3] | EC50 [4] | IC50 [5] | IC50 [6] | IC50 [7] | EC50 [8] | Activity [9] | Activity [10] | Activity [11]
C[C@H](N)C(=O)NCC(=O)N[C@H]1CSSC[C@@H](C(=O)O)NC(=O)[C@H](CO)NC(=O)[C@H]([C@@H](C)O)NC(=O)[C@H](Cc2ccccc2)NC(=O)[C@H]([C@@H](C)O)NC(=O)[C@H](CCCCN)NC(=O)[C@@H](Cc2ccc(O)cc2)NC(=O)[C@H](Cc2ccccc2)NC(=O)[C@H](Cc2ccccc2)NC(=O)[C@H](CC(N)=O)NC(=O)[C@H](CCCCN)NC1=O | 4.1 nM | 41 nM | Active | 0.87 nM | 2 nM | 16 nM | 140 nM | – | – | – | –
C[C@H](N)C(=O)NCC(=O)N[C@H]1CSSC[C@@H](C(=O)O)NC(=O)[C@H](CO)NC(=O)[C@H]([C@@H](C)O)NC(=O)[C@H](Cc2ccccc2)NC(=O)[C@H]([C@@H](C)O)NC(=O)[C@H](CCCCN)NC(=O)[C@@H](Cc2cn(Cc3ccccc3)cn2)NC(=O)[C@H](Cc2ccccc2)NC(=O)[C@H](Cc2ccccc2)NC(=O)[C@H](CC(N)=O)NC(=O)[C@H](CCCCN)NC1=O | 106 nM | > 1000 nM | Active | – | 15 nM | > 1000 nM | > 1000 nM | 41 nM | Active | – | –
C[C@H](N)C(=O)NCC(=O)N[C@H]1CSSC[C@@H](C(=O)O)NC(=O)[C@H](CO)NC(=O)[C@H]([C@@H](C)O)NC(=O)[C@H](Cc2ccccc2)NC(=O)[C@H]([C@@H](C)O)NC(=O)[C@H](CCCCN)NC(=O)[C@H](Cc2ccc(O)cc2)NC(=O)[C@H](Cc2ccccc2)NC(=O)[C@H](Cc2ccccc2)NC(=O)[C@H](CC(N)=O)NC(=O)[C@H](CCCCN)NC1=O | 35 nM | 556 nM | Active | 15.7 nM | 13 nM | 25 nM | 138 nM | – | – | – | –
C[C@H](N)C(=O)NCC(=O)N[C@H]1CSSC[C@@H](C(=O)O)NC(=O)[C@H](CO)NC(=O)[C@H]([C@@H](C)O)NC(=O)[C@H](Cc2ccccc2)NC(=O)[C@H]([C@@H](C)O)NC(=O)[C@H](CCCCN)NC(=O)[C@H](Cc2ccc3ccccc3c2)NC(=O)[C@H](Cc2ccccc2)NC(=O)[C@H](Cc2ccccc2)NC(=O)[C@H](CC(N)=O)NC(=O)[C@H](CCCCN)NC1=O | 15 nM | 69 nM | Active | 0.35 nM | 1.5 nM | 12 nM | 2.7 nM | – | – | – | –
C[C@@H](O)[C@@H]1NC(=O)[C@H](CCCCN)NC(=O)[C@@H](Cc2cn(Cc3ccccc3)cn2)NC(=O)[C@H](Cc2ccccc2)NC(=O)[C@H](Cc2ccccc2)NC(=O)[C@@H](N)CSSC[C@@H](C(=O)O)NC(=O)[C@H](Cc2ccccc2)NC1=O | > 1000 nM | > 1000 nM | inactive | – | 75 nM | 590 nM | > 1000 nM | 299 nM | Active | Active | inactive
C[C@@H](O)[C@@H]1NC(=O)[C@H](CCCCN)NC(=O)[C@H](Cc2c[nH]c3ccccc23)NC(=O)[C@H](Cc2ccccc2)NC(=O)[C@H](Cc2ccccc2)NC(=O)[C@@H](N)CSSC[C@@H](C(=O)O)NC(=O)[C@H](Cc2ccccc2)NC1=O (H-CFFWKTFC-OH; disulfide 1-8) | – | 16 nM | Active | – | – | – | – | 4.7 nM | – | – | –
C[C@@H](O)[C@@H]1NC(=O)[C@H](CCCCN)NC(=O)[C@H](Cc2cn(Cc3ccccc3)cn2)NC(=O)[C@H](Cc2ccccc2)NC(=O)[C@H](Cc2ccccc2)NC(=O)[C@@H](N)CSSC[C@@H](C(=O)O)NC(=O)[C@H](Cc2ccccc2)NC1=O | > 1000 nM | > 1000 nM | inactive | – | 164 nM | > 1000 nM | > 1000 nM | 164 nM | Active | Active | inactive
C[C@@H](O)[C@@H]1NC(=O)[C@H](CCCCN)NC(=O)[C@@H](Cc2c[nH]c3ccccc23)NC(=O)[C@H](Cc2ccccc2)NC(=O)[C@H](Cc2ccccc2)NC(=O)[C@@H](N)CSSC[C@@H](C(=O)O)NC(=O)[C@H](Cc2ccccc2)NC1=O (H-CFF[dW]KTFC-OH; disulfide 1-8) | – | 2.6 nM | Active | 3.33 nM | – | – | – | – | – | – | –
C[C@H](N)C(=O)NCC(=O)N[C@H]1CSSC[C@@H](C(=O)O)NC(=O)[C@H](CO)NC(=O)[C@H]([C@@H](C)O)NC(=O)[C@H](Cc2ccccc2)NC(=O)[C@H]([C@@H](C)O)NC(=O)[C@H](CCCCN)NC(=O)[C@H](Cc2cn(Cc3ccccc3)cn2)NC(=O)[C@H](Cc2ccccc2)NC(=O)[C@H](Cc2ccccc2)NC(=O)[C@H](CC(N)=O)NC(=O)[C@H](CCCCN)NC1=O | > 1000 nM | > 1000 nM | Active | – | 131 nM | > 1000 nM | > 1000 nM | 315 nM | Active | – | –
C[C@@H](O)[C@@H]1NC(=O)[C@H](CCCCN)NC(=O)[C@@H](Cc2ccc3ccccc3c2)NC(=O)[C@H](Cc2ccccc2)NC(=O)[C@H](Cc2ccccc2)NC(=O)[C@@H](N)CSSC[C@@H](C(=O)O)NC(=O)[C@H](Cc2ccccc2)NC1=O | 173 nM | 6 nM | Active | 0.53 nM | 6.7 nM | 41 nM | 607 nM | – | – | – | –
C[C@H](N)C(=O)NCC(=O)N[C@H]1CSSC[C@@H](C(=O)O)NC(=O)[C@H](CO)NC(=O)[C@H]([C@@H](C)O)NC(=O)[C@H](Cc2ccccc2)NC(=O)[C@H]([C@@H](C)O)NC(=O)[C@H](CCCCN)NC(=O)[C@@H](Cc2ccc3ccccc3c2)NC(=O)[C@H](Cc2ccccc2)NC(=O)[C@H](Cc2ccccc2)NC(=O)[C@H](CC(N)=O)NC(=O)[C@H](CCCCN)NC1=O | 1.6 nM | 2.4 nM | Active | 0.23 nM | 1 nM | 12 nM | 4.1 nM | – | – | – | –
